Test results from patent US6503698B1, “Cryopreservation of swine embryos” (The United States of America as represented by the …, priority 2000, dated 2003).
Marks after values point to notes of the source that are not given here.

System: swine embryos
Assay: Progressive development in vitro of swine embryos after cryopreservation by vitrification under the influence of microfilament stabilizer cytochalasin-b
Type: cell-based
Conditions: for % dev (progressive development in vitro after vitrification) / dev (number of embryos developed in vitro after vitrification): + cytochalasin-b
Description: Cyto-b is added to the medium for MF depolymerization. Studies were carried out which documented microfilament (MF) alterations during swine embryo vitrification (Dobrinsky et al. 2000, supra).
Developmental appraisals of the centrifuged cryopreserved embryos were carried out both in vitro and in vivo. For in vitro studies, morulae/blastocysts were cultured for 72 hours post-treatment. After culture, embryos were morphologically evaluated for their developmental progression. […] Since all morulae would have to develop into
Embryos were vitrified as described by Dobrinsky and Johnson (supra) in vitrification medium [6.5M glycerol, 6% bovine serum albumin-V (BSA-V; Sigma Chemical Co., St. Louis, Mo.)]. Prior to cryopreservation, for microfilament depolymerization, embryos were incubated at 39° C. in 5% CO2 and air, 95% humidity for 30-45 min in culture medium containing 7.5 μg/ml cyto-b (Sigma Chemical co., supra; stock=5 mg/ml 95% food grade EtOH). Following incubation in cyto-b, embryos were removed from culture and washed 3 times in 2 ml handling medium with cyto-b for 5 min and then equilibrated in 1 ml handling medium containing 6% BSA-V and cyto-b for 5 min. Embryos were then washed in vitrification equilibration medium (25% glycerol v/v, 6% BSA-V) containing cyto-b, then placed in 20 μl of vitrification equilibration medium containing cyto-b in a 1.5-ml microcentrifuge tube. The tube was placed and counterbalanced in an Eppendorf 5415 microcentrifuge and centrifuged for 13 min at 13,000 rpm. During centrifugation, embryos were dehydrated and equilibrated with glycerol. Total time in vitrification equilibration medium was about 20 min, including the centrifugation time.

C=C1[C@@H](C)[C@H]2[C@H](Cc3ccccc3)NC(=O)[C@]23OC(=O)/C=C/[C@H](O)CCC[C@@H](C)C/C=C/[C@H]3[C@@H]1O [Cytochalasin-b]
% dev (progressive development in vitro after vitrification) (HB1 = hatched blastocysts <400 μm diameter): 90^c;z %
dev (number of embryos developed in vitro after vitrification) (HB1 = hatched blastocysts <400 μm diameter, n 48): 43
% dev (progressive development in vitro after vitrification) (HB2 = hatched blastocysts >400 μm diameter): 41%
dev (number of embryos developed in vitro after vitrification) (HB2 = hatched blastocysts >400 μm diameter, n 22): 9
% dev (progressive development in vitro after vitrification) (MB = morulae/early blastocysts): 6^a %
dev (number of embryos developed in vitro after vitrification) (MB = morulae/early blastocysts, n 17): 1
% dev (progressive development in vitro after vitrification) (XB = expanded blastocysts): 60^b;z %
dev (number of embryos developed in vitro after vitrification) (XB = expanded blastocysts, n 25): 15
survival and development of expanded and hatched blastocysts after vitrification (expanded and hatched blastocysts, versus control without cyto-b): significantly (p<0.05) improved survival and development
morula/early blastocyst viability after vitrification (morulae/early blastocysts, versus control without cyto-b): did not appear to improve
